Patent publication US20240002388A1, “PYRIMIDINONE COMPOUNDS AND USES THEREOF” (HUTCHISON MEDIPHARMA LIMITED, priority 2020, published 2024)
pIC50: −log10 of the molar value.

target: RIPK1 recombination protein (Homo sapiens (Human), UniProt Q13546); experiment: RIPK1 kinase activity assay (ADP-Glo); format: biochemical; settings: RIPK1 kinase activity, ADP-Glo, 10 μM ATP
Experimental: RIPK1 recombination protein: synthesized by Shanghai Medicilon Inc. under the commission by Hutchison MediPharma Limited (50 g of cell pellet was resuspended in 250 mL of lysis buffer (50 mM Tris, pH 7.5, 250 mM NaCl, 1 mM DTT, protease inhibitor 1:50), the cells were ultrasonically lysed using a sonicator (the power set to 4) on ice for 3×30 minutes; then centrifugation was carried out at 4° C., at 15,000 g for 30 minutes to clarify the suspension, the soluble pellet was resuspended into 10 mL of glutathione agarose, and incubated at 4° C. for 2 hours; then the beads were loaded into the column and washed with lysis buffer (no protease inhibitors) to baseline, and eluted with 20 mM of reduced glutathione (50 mM Tris, pH 8). The fractions identified by SDS-PAGE as containing the protein of interest were collected (10 mL of total volume), concentrated to about 5 mL and loaded into 300 mL superdex75 column (GE Healthcare) equilibrated with buffer (50 mM Tris, pH 7.5, 150 mM NaCl, 1 mM DTT, 10% glycerol, pH 7.5). RIP1 protein was eluted as a dimer from the superdex75 column. The protein concentration was determined by the Bradford assay using BSA as the standard. The yield was 12.5 mg at 0.63 mg/mL. The protein was aliquoted and frozen at −80° C. for later use.
ADP-Glo Kinase kit can be used to measure ADP level in kinase activity assay so as to distinguish the inhibitory effects of different compounds on RIPK1 kinase activity. The ADP-Glo assay was usually divided into three steps. Firstly, the kinase converted ATP to ADP and phosphorylated the substrate at the same time; secondly, ATP digestion reagent was added to degrade all ATP in the reaction system; finally, a detection reagent was added to reduce ADP to ATP, and energy from ATP was transferred to […] which thus emitting a chemical luminescence that can be detected. Assay procedure can refer to manufacture's technical manual.
(2) Reagent Preparation: • 1.33× kinase buffer: 5× kinase buffer stock (250 mM of NaCl, 150 mM of MgCl2, 2.5 mg/ml BSA (bovine serum albumin), 0.1% CHAPS (3-[(3-cholamidopropyl)-dimethyl-ammonio]-1-propane sulfonate), and 5 mM of dithiothreitol) was diluted with water to 1.33× kinase buffer; • RIPK1 enzyme solution: the kinase was dissolved in 1.33× kinase buffer to make 40 nM as the final working concentration; • ATP solution: 10 mM ATP stock solution in water was dissolved in 1.33× kinase buffer to make 10 μM as the final working concentration; • 4× compound preparation: the compound was diluted in a 3-fold gradient, and finally 4% DMSO aqueous solution containing different concentrations of the compound was obtained. The final concentrations of the test compound were 10, 3.33, 1.11, 0.37, 0.12, 0.04, 0.014, and 0.005 μM.
The assay set up two control groups, one was 100% inhibition group (no enzyme treatment), another was 0% inhibition group (no inhibitor treatment), each control group contained 8 replicate wells. 2.5 μl of serially diluted compound was added to each well of a 384-well plate, with double replicate wells, and 4% DMSO solution was added to control wells. Then 5 μl of RIPK1 enzyme solution was added to each well except 100% inhibition control, 5 ul of buffer was added to 100% inhibition control, after that, 2.5 μl of ATP solution was added to all wells, the plate was vibrated at 1000 rpm for 30 seconds to perform transient centrifuge; finally the 384-well assay plate was put in the shaking incubator, and incubated at room temperature for 3 hours. After the enzymatic reaction was completed, 5 μl of ATP depletion reagent was added to each well, the mixture was centrifuged transiently, then the 384-well assay plate was put in the shaking incubator, and incubated at room temperature for 1 hour. 5 μl of ADP detection reagent was added to each well, and the mixture was centrifuged transiently, and incubated at room temperature for 0.5 hour. […]

RIPK1 recombination protein, sequence (Q13546 other isoform, or with tags, fused parts or gaps): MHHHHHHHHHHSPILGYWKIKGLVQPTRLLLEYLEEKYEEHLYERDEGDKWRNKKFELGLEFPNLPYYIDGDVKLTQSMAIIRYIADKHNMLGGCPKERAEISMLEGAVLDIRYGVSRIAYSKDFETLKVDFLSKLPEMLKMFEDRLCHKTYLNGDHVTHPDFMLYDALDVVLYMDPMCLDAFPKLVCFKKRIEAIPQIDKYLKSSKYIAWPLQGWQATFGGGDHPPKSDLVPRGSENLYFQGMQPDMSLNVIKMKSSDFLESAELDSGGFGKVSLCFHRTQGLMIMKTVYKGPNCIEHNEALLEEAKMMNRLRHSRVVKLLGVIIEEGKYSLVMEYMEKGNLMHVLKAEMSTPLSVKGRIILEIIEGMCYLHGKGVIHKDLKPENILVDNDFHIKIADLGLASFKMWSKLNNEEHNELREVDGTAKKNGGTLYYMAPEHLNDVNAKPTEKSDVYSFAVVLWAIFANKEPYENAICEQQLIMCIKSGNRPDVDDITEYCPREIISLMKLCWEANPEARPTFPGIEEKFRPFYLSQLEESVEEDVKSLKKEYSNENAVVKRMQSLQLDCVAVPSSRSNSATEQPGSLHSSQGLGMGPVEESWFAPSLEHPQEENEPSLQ

SMILES | pIC50
CC(C)n1cncc(-c2ccc(C3(NC(=O)c4ncc5cnn([C@H](C)C6CC6)c5n4)CC3)cc2)c1=O [Compound 89, (R)-1-(1-cyclopropylethyl)-N-(1-(4-(1-i-propyl-6-oxo-1,6-dihydropyrimidin-5-yl)phenyl)cyclopropyl)-1H-pyrazolo[3,4-d]pyrimidine-6-carboxamide] | 7.32
CC(C)n1cncc(-c2ccc(C3(NC(=O)c4ncc5cnn(-c6ccccc6)c5n4)CC3)cc2)c1=O [Compound 19] | 7.15
CC(C)n1cncc(-c2ccc(C3(NC(=O)c4ncc5cnn(C6COC6)c5n4)CC3)cc2)c1=O [Compound 60] | 7.23
CC(C)n1cncc(-c2ccc(C3(NC(=O)c4ncc5cnn(CC6CC6)c5n4)CC3)cc2F)c1=O [Compound 73] | 7.28
CC(C)Cc1nc(C(=O)NC2(c3ccc(-c4cncn(C(C)C)c4=O)cc3)CC2)ncc1Cl [Compound 22] | 7.26
CC(C)n1cncc(-c2ccc(C3(NC(=O)c4ncc5cnn(C(C)C)c5n4)CC3)cc2F)c1=O [Compound 35] | 7.33
CC(C)Cc1nc(C(=O)NC2(c3ccc(-c4cncn(C)c4=O)cc3)CC2)ncc1Cl [Compound 6] | 7.25
CC(C)n1cncc(-c2ccc(C3(NC(=O)c4ncc5cnn([C@@H](C)C6CC6)c5n4)CC3)cc2)c1=O [Compound 90, (S)-1-(1-cyclopropylethyl)-N-(1-(4-(1-i-propyl-6-oxo-1,6-dihydropyrimidin-5-yl)phenyl)cyclopropyl)-1H-pyrazolo[3,4-d]pyrimidine-6-carboxamide] | 7.27
CC(C)n1cncc(-c2cc(F)c(C3(NC(=O)c4ncc5cnn(C(C)C)c5n4)CC3)c(F)c2)c1=O [Compound 92] | 6.98
Cn1cncc(-c2ccc(C3(NC(=O)c4cc(Cc5ccccc5)on4)CC3)cc2)c1=O [Compound 5] | 7.24
CC(C)n1ncc2cnc(C(=O)NC3(c4ccc(-c5cncn(C)c5=O)cn4)CC3)nc21 [Compound 2] | 7.20
CC(C)n1cncc(-c2ccc(C3(NC(=O)c4ncc5cnn(C(C)C)c5n4)CC3)c(F)c2Cl)c1=O [Compound 91] | 7.14
CC(C)n1ncc2cnc(C(=O)NC3(c4ccc(-c5cncn(CC6CCC6)c5=O)cc4)CC3)nc21 [Compound 66] | 7.32
CC(C)n1ncc2cnc(C(=O)NC3(c4ccc(-c5cncn(C)c5=O)c(Cl)c4)CC3)nc21 [Compound 25] | 7.28
CC(C)n1ncc2cnc(C(=O)NC3(c4ccc(-c5cncn([C@@H](C)C(F)(F)F)c5=O)cc4)CC3)nc21 [Compound 40] | 7.28
CC(C)n1cncc(-c2ccc(C3(NC(=O)c4ncc5cnn(C(C)C)c5n4)CC3)cc2Cl)c1=O [Compound 33] | 7.23
C[C@H](n1cncc(-c2ccc(C3(NC(=O)c4ncc5cnn(CC6CC6)c5n4)CC3)cc2)c1=O)C(F)(F)F [Compound 68] | 7.37

Further molecules by rising pIC50, results first:

pIC50 | SMILES
7.38 | CC(C)n1ncc2cnc(C(=O)NC3(c4ccc(-c5cncn(C6CCOCC6)c5=O)cc4)CC3)nc21 [Compound 77]
7.38 | CC(C)n1ncc2cnc(C(=O)NC3(c4ccc(-c5cncn(CC6CC6)c5=O)cc4)CC3)nc21 [Compound 36]
7.39 | CCn1cncc(-c2ccc(C3(NC(=O)c4ncc5cnn(C(C)C)c5n4)CC3)cc2)c1=O [Compound 37]
7.40 | CC(C)Cn1cncc(-c2ccc(C3(NC(=O)c4ncc5cnn(C(C)C)c5n4)CC3)cc2)c1=O [Compound 45]
7.43 | Cn1cncc(-c2ccc(C3(NC(=O)c4noc(Cc5ccccc5)n4)CC3)cc2)c1=O [Compound 9]
7.43 | CC[C@@H](C)n1cncc(-c2ccc(C3(NC(=O)c4ncc5cnn(C(C)C)c5n4)CC3)cc2)c1=O [Compound 44]
7.44 | CC(C)n1ncc2cnc(C(=O)NC3(c4ccc(-c5cncn(C6CC(F)(F)C6)c5=O)cc4)CC3)nc21 [Compound 65]
7.46 | CC(C)n1ncc2cnc(C(=O)NC3(c4ccc(-c5cnc(N)n(C)c5=O)cc4)CC3)nc21 [Compound 30]
7.46 | CC(C)n1ncc2cnc(C(=O)NC3(c4ccc(-c5cncn([C@H](C)C(F)(F)F)c5=O)cc4F)CC3)nc21 (stereo in doubt) [Compound 46]
7.46 | Cn1cncc(-c2ccc(C3(NC(=O)c4nnc(Cc5ccccc5)[nH]4)CC3)cc2)c1=O [Compound 3]
7.46 | CC(C)n1cncc(-c2ccc(C3(NC(=O)c4ncc5cnn(C(C)C)c5n4)CC3)c(F)c2F)c1=O [Compound 93]
7.52 | CC(C)n1ncc2cnc(C(=O)NC3(c4ccc(-c5cncn([C@@H](C)C6CC6)c5=O)cc4)CC3)nc21 [Compound 85, (S)—N-(1-(4-(1-(1-cyclopropylethyl)-6-oxo-1,6-dihydropyrimidin-5-yl)phenyl)cyclopropyl)-1-i-propyl-1H-pyrazolo[3,4-d]pyrimidine-6-carboxamide]
7.54 | CC(C)n1ncc2cnc(C(=O)NC3(c4ccc(-c5cncn([C@@H](C)C(F)(F)F)c5=O)cc4F)CC3)nc21 (stereo in doubt) [Compound 47]
7.55 | CC(C)n1ncc2cnc(C(=O)NC3(c4ccc(-c5cncn(C)c5=O)cc4)CC3)nc21 [Compound 1, 1-isopropyl-N-(1-(4-(1-methyl-6-oxo-1,6-dihydropyrimidin-5-yl)phenyl)cyclopropyl)-1H-pyrazolo[3,4-d]pyrimidine-6-carboxamide]
7.57 | Cn1cncc(-c2ccc(C3(NC(=O)c4nc5n(n4)[C@@H](c4ccccc4)CC5)CC3)cc2)c1=O [Compound 54, (R)—N-(1-(4-(1-methyl-6-oxo-1,6-dihydropyrimidin-5-yl)phenyl)cyclopropyl)-5-phenyl-6,7-dihydro-5H-pyrrolo[1,2-b][1,2,4]triazole-2-carboxamide]
7.57 | CC(C)n1ncc2cnc(C(=O)NC3(c4cc(F)c(-c5cncn(CC6CC6)c5=O)cc4F)CC3)nc21 [Compound 94]
7.59 | Cn1cncc(-c2ccc(C3(NC(=O)c4ncc5cnn(-c6ccccc6)c5n4)CC3)cc2)c1=O [Compound 4]
7.59 | CC(C)n1cncc(-c2ccc(C3(NC(=O)c4ncc5cnn(C(C)C6CC6)c5n4)CC3)cc2)c1=O (racemic) [Compound 59, 1-(1-cyclopropylethyl)-N-(1-(4-(1-i-propyl-6-oxo-1,6-dihydropyrimidin-5-yl)phenyl)cyclopropyl)-1H-pyrazolo[3,4-d]pyrimidine-6-carboxamide]
7.66 | CC(C)n1cncc(-c2ccc(C3(NC(=O)c4nnc(Cc5ccccc5)o4)CC3)cc2)c1=O [Compound 13]
7.66 | Cn1cncc(-c2ccc(C3(NC(=O)c4ncn(Cc5ccccc5)n4)CC3)cc2)c1=O [Compound 8]
7.68 | CC(C)n1ncc2cnc(C(=O)NC3(c4ccc(-c5cncn(C6(C)CCC6)c5=O)cc4)CC3)nc21 [Compound 79]
7.72 | CC(C)n1cncc(-c2ccc(C3(NC(=O)c4ncc5cnn(C(C)C)c5n4)CC3)cc2)c1=O [Compound 29, 1-isopropyl-N-(1-(4-(1-isopropyl-6-oxo-1,6-dihydropyrimidin-5-yl)phenyl)cyclopropyl)-1H-pyrazolo[3,4-d]pyrimidine-6-carboxamide]
7.85 | CC(C)n1ncc2cnc(C(=O)NC3(c4ccc(-c5cncn(CC6(C)CC6)c5=O)cc4)CC3)nc21 [Compound 86]
